Experiments:
Plasmodium falciparum [1] = test: NOVARTIS: Inhibition of Plasmodium falciparum 3D7 (drug-susceptible) proliferation in erythrocyte-based infection assay; format: functional, organism-based; conditions: Plasmodium falciparum, 3D7
[2] = NOVARTIS: Cytotoxicity against human hepatocellular carcinoma cell line (Huh7); format: toxicity, cell-based, Huh-7; conditions: Huh7 cells (hepatocellular carcinoma cell line)
Plasmodium falciparum [3] = test: NOVARTIS: Inhibition of Plasmodium falciparum W2 (drug-resistant) proliferation in erythrocyte-based infection assay; format: functional, organism-based; conditions: Plasmodium falciparum, W2; read-out: EC50

SMILES	EC50 (Plasmodium falciparum [1])	CC50 [2]	EC50 (Plasmodium falciparum [3])
CCC1CN2CCC1CC2C(O)c1ccnc2ccccc12 (configuration not stated)	299 nM	> 100000 nM	627 nM
CCOC(=O)c1c(NC(=O)C(C)Sc2nnc(CNC(=O)c3ccco3)n2-c2cccc(C(F)(F)F)c2)sc2c1CCC2 (configuration not stated)	> 12500 nM	> 100000 nM	649 nM
CN(CCCNc1ccnc2cc(Cl)ccc12)C(=O)C1CC1	164 nM	> 7250 nM	46.7 nM
O=C(Nc1ccc(C2=NCCN2)cc1)Nc1cc(C(=O)Nc2ccc(C3=NCCN3)cc2)ccc1C(=O)Nc1ccc(C2=NCCN2)cc1	99.7 nM	> 10000 nM	62.9 nM
COc1ccc(C=NNc2cc(C)nc3ccc(OC)cc23)c(OC)c1	33.1 nM	6690 nM	43.5 nM
Cn1nc(C(F)(F)F)c(-c2ccc(F)cc2)c1NC(=O)Nc1ccccc1	392 nM	54300 nM	353 nM
CN(C)CCNC(=O)c1cc2c(-c3ccc(Cl)cc3)nn(C)c2s1	339 nM	64600 nM	422 nM
CN(C)CCCNc1ncnc2c1[nH]c1ccc(F)cc12	93.1 nM	48700 nM	305 nM
Cc1cc(-c2ccc(O)c(CN3CCCCCC3)c2)c2ccccc2n1	1120 nM	55900 nM	345 nM
CCCN1CCc2c(sc3nc(SC)n(-c4ccccc4)c(=O)c23)C1	947 nM	> 100000 nM	627 nM
COc1ccc(CCNC2(Cc3ccccc3)CC(C)N(C)CC2C)cc1OC (configuration not stated)	620 nM	42700 nM	268 nM
CC(=O)N1CCC(N(C(=O)Nc2c(F)cccc2F)C(C)C)CC1	> 12500 nM	> 100000 nM	625 nM
COc1cc(C(Nc2ccccn2)c2ccc3cccnc3c2O)cc(Br)c1OC (configuration not stated)	368 nM	> 35000 nM	219 nM
CCCCn1c(=N)n(CC(O)c2ccc(Br)cc2)c2ccccc21 (configuration not stated)	466 nM	22500 nM	141 nM
CC(=O)N(Cc1ccc(F)cc1)C1=C(NCCc2ccccc2)C(=O)c2ccccc2C1=O	5.93 nM	2910 nM	18.2 nM
O=C(Nc1ccc(O)cc1)c1cccc(S(=O)(=O)N2CCCCC2)c1	6910 nM	> 100000 nM	621 nM
C=CCc1cc(-c2cc(CC=C)c(O)c(CN(CC)CC)c2)cc(CN(CC)CC)c1O	273 nM	> 10000 nM	61.9 nM
CCC(CC)CN1CCC(O)(c2ccc3oc(C(=O)Nc4ccc(OC)cc4)cc3c2)CC1	954 nM	> 100000 nM	617 nM
O=c1c2c([nH]c3cc(Cl)ccc13)CCCC2	333 nM	> 100000 nM	649 nM
CN(CCCNc1ccnc2cc(Cl)ccc12)C(=O)C(Cl)Cl	28.6 nM	> 14000 nM	91.4 nM
O=C(Cn1c2ccccc2c(=O)c2ccccc21)Nc1ccc([N+](=O)[O-])c(Br)c1	1110 nM	> 100000 nM	632 nM
O=C(NCc1ccco1)C1CCN(S(=O)(=O)c2ccc(Br)cc2)CC1	362 nM	> 100000 nM	629 nM
Cc1ccc2c(c1)NC(c1ccc(F)cc1)C1=C(CC(c3ccccc3)CC1=O)N2 (configuration not stated)	833 nM	> 100000 nM	635 nM
COc1ccc(Nc2nc(NN=Cc3cccc([N+](=O)[O-])c3OC)nc(Nc3ccc([N+](=O)[O-])cc3)n2)cc1	221 nM	> 100000 nM	635 nM
CC1=C(C(=O)OC2CCCCC2)C(c2ccc(F)cc2)C2=C(CC(c3ccccc3)CC2=O)N1 (configuration not stated)	3690 nM	> 100000 nM	653 nM
COc1ccc(C=CC(=O)NC(=O)c2ccccc2O)cc1	132 nM	> 73500 nM	479 nM
COC(=O)C1=C(C)NC2=C(C(=O)CC(C)(C)C2)C1c1ccc(C)o1 (configuration not stated)	1580 nM	> 100000 nM	638 nM

SMILES	EC50 (Plasmodium falciparum [1])	CC50 [2]	EC50 (Plasmodium falciparum [3])
OC1(c2cccc3ccccc23)CCN(Cc2ccccc2)C1 (configuration not stated)	457 nM	23100 nM	148 nM
Cc1ccn2c(NC(C)(C)CC(C)(C)C)c(-c3ccccc3OC(=O)/C=C/c3ccc([N+](=O)[O-])cc3)nc2c1	> 1390 nM	> 10000 nM	63.7 nM
Cc1c2c(cc3c1ccc1ccccc13)C[N+]1(CCCCC1)C2	1290 nM	> 100000 nM	657 nM
N#CC(=Cc1cn(Cc2ccccc2Cl)c2ccccc12)c1nn(CCO)c(N)c1C#N	273 nM	44800 nM	294 nM
COCCNC(=S)N(Cc1ccc(F)cc1)Cc1cc2ccc(C)c(C)c2[nH]c1=O	412 nM	> 10000 nM	64.2 nM
CC1=C(C(=O)OC(C)C)C(c2ccc([N+](=O)[O-])cc2)C2=C(CC(C)(C)CC2=O)N1 (configuration not stated)	1560 nM	40000 nM	255 nM
O=C(Nc1ccccc1[N+](=O)[O-])C1CC1(c1ccccc1)c1ccccc1 (configuration not stated)	> 12500 nM	> 100000 nM	647 nM
COc1ccc(C2CC(=O)C3=C(C2)NC(C)=C(C(=O)OC2CCCC2)C3c2ccc(OC)cc2)cc1 (configuration not stated)	3260 nM	> 100000 nM	649 nM
COc1ccc(C2Nc3ccc4ccccc4c3C3=C2C(=O)CC(C)(C)C3)cc1Br (configuration not stated)	3190 nM	> 100000 nM	649 nM
Cc1ccc[n+](C(C)C(=O)c2ccc(-c3ccccc3)cc2)c1 (configuration not stated)	1610 nM	> 100000 nM	649 nM
COc1cc(NC(=O)C=Cc2ccccc2Cl)cc(OC)c1OC	547 nM	47800 nM	302 nM
O=C(Nc1ccc(-c2nc3ccc(-c4nc5ccc(NC(=O)c6cccc7ccccc67)cc5[nH]4)cc3[nH]2)cc1)c1cccc2ccccc12	742 nM	> 100000 nM	641 nM
Cc1ccc(C)c(NC(=O)c2c(-c3c(Cl)cccc3Cl)noc2C)c1	218 nM	> 70700 nM	443 nM
COC(=O)C1C(=O)C2=C(CC1C)NC(=O)CC2c1cccc(Cl)c1Cl (configuration not stated)	814 nM	> 100000 nM	617 nM
CC(C)N1CC=C(c2c[nH]c3ccccc23)CC1	206 nM	> 100000 nM	637 nM
CCN1CCCC1CNc1ncnc2c1[nH]c1ccc(C)cc12 (configuration not stated)	269 nM	21000 nM	138 nM
Cc1cc(C)n(CC(O)Cn2c3ccc(Br)cc3c3cc(Br)ccc32)n1 (configuration not stated)	1040 nM	45400 nM	284 nM
COC(=O)[C@@H]1C[C@@H](NC(=O)c2ccc(OC)cc2)CN1CC(c1ccccc1)c1ccccc1	1150 nM	> 4170 nM	< 25.7 nM
COc1ccc(Br)cc1CNC(=O)CCCN1C(=O)COc2ccc(C)cc21	1880 nM	> 100000 nM	628 nM
Cc1ccc(C)c(Nc2nc(NCc3ccccc3)c3ccccc3n2)c1	246 nM	14500 nM	90.2 nM
CC(C)(C)CC(C)(C)Nc1c(-c2ccccc2OC(=O)c2ccc(C(F)(F)F)cc2)nc2ccccn12	670 nM	> 10000 nM	64 nM
Cc1c2c(n3c(nc4ccccc43)c1C#N)N(CCN(C)C)CC2	419 nM	> 100000 nM	638 nM
CCCCCOC(=O)C1=C(C)NC2=C(C(=O)CCC2)C1c1ccc(OC)c(Br)c1 (configuration not stated)	615 nM	> 100000 nM	650 nM
COc1cc2c(-c3cc(Br)ccc3O)nc3c(c(-c4ccccc4)nn3-c3ccccc3)c2cc1OC	1150 nM	> 100000 nM	655 nM
Cc1cc2cc(C3C(C#N)=C(N)Oc4c3ccc3ccccc43)c(Cl)nc2cc1Cl (configuration not stated)	240 nM	> 100000 nM	629 nM
OC1=C2C(=Nc3ccccc3SC2c2ccco2)c2ccccc21 (configuration not stated)	251 nM	55300 nM	350 nM
CN(C)c1ccc(-c2n(C)c3ccccc3[n+]2C)cc1	1120 nM	> 100000 nM	636 nM

From ChEMBL document CHEMBL1156829 (Proc Natl Acad Sci U S A, 2008)
